Tests used:
[1] = target: T1, AHR (aryl hydrocarbon receptor) (Homo sapiens, UniProt P35869); test: ATG_Ahr_CIS: Factorial reporter gene assay (multiplexed transcription reporter, HepG2); type: cell-based; set-up: scale not given here
T1 construct: endogenous in cells; host or cells: HepG2
T1 sequence (P35869 11-848): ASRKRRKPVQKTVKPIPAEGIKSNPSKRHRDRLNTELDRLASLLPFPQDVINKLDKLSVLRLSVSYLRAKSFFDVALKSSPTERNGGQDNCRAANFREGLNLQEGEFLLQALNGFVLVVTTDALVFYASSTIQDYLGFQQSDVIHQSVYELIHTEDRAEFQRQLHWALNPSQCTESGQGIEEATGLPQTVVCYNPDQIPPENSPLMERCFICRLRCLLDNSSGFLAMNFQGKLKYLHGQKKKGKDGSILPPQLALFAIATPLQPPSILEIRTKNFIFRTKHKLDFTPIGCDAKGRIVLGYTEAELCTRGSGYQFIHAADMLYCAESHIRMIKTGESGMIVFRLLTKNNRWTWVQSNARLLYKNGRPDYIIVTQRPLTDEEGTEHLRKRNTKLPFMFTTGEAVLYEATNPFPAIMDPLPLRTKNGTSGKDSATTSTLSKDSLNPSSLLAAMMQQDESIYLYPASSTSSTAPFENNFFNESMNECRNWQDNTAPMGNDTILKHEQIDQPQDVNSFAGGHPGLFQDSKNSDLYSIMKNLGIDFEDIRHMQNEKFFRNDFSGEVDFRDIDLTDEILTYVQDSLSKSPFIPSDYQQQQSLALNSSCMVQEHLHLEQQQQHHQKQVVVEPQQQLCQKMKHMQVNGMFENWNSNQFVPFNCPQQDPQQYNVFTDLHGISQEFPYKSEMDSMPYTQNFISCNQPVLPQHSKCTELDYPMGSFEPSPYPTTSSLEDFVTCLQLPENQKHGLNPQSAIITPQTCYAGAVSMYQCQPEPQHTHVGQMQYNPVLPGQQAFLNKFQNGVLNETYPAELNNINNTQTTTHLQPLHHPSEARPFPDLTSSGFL
Procedure, shortened: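 HepG2 cells transfected with multiplexed reporter libraries: cis-acting binding-site reporters (CIS) and a one-hybrid nuclear-receptor trans system (TRANS). Chemicals tested at seven concentrations, starting at the maximum tolerated concentration with three-fold serial dilutions.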

[2] = target: T2, RXRB (retinoid X receptor, beta) (Homo sapiens, UniProt P28702); test: ATG_RXRb_TRANS: Factorial reporter gene assay (HepG2); type: cell-based; settings: HepG2; scale not given, looks like -log10 of molar active concentration; 0 = no activity
T2 construct: expressed in transfected cells; host or cells: HepG2
T2 sequence (P28702 1-533): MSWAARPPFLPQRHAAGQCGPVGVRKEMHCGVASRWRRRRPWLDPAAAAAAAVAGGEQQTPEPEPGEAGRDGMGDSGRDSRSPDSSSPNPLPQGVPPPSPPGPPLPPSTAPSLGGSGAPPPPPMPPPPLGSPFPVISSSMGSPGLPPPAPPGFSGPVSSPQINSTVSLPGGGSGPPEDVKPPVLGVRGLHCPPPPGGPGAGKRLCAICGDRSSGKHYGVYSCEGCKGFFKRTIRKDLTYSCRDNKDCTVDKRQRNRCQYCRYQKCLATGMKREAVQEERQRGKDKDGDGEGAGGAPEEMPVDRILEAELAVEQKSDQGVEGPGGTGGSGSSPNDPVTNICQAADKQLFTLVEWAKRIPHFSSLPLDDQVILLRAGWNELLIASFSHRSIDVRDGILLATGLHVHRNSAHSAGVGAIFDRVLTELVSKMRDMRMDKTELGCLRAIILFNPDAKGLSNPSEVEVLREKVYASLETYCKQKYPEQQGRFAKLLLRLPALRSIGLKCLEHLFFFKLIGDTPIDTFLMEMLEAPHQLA
Protocol: A multiple reporter transcription unit (MRTU) library consisting of 48 transcription factor binding sites was transfected into the HepG2 human liver hepatoma cell line. In addition to the cis-acting reporter genes (CIS), a modification of the approach was used to generate a trans-system (TRANS) with a mammalian one-hybrid assay consisting of an additional 25 MRTU library reporting the activity of nuclear receptor super-family members. […] These assays were performed by Attagene Inc. (Morrisville NC) under contract to EPA.
In addition to the cis-acting reporter genes (CIS), a modification of the approach was used to generate a trans-system (TRANS) with a mammalian one-hybrid assay consisting of an additional 25 MRTU library reporting the activity of nuclear receptor super-family members. […] Chemicals were then tested in the CIS and TRANS assays at seven concentrations starting at the MTC and followed by three-fold serial dilutions. These assays were performed by Attagene Inc. (Morrisville NC) under contract to EPA. Detailed description of the methods, data and analysis methods for this dataset will be presented in a separate publication.

[3] = target: T3, PPARa (PPARA) (Homo sapiens, UniProt Q07869); test: NVS_NR_hPPARa: Human PPARa Fluormone Pan-PPAR green (cell-free HTS); type: binding; settings: scale not given, looks like -log10 of molar active concentration, 0 = no activity
T3 sequence (Q07869 1-468): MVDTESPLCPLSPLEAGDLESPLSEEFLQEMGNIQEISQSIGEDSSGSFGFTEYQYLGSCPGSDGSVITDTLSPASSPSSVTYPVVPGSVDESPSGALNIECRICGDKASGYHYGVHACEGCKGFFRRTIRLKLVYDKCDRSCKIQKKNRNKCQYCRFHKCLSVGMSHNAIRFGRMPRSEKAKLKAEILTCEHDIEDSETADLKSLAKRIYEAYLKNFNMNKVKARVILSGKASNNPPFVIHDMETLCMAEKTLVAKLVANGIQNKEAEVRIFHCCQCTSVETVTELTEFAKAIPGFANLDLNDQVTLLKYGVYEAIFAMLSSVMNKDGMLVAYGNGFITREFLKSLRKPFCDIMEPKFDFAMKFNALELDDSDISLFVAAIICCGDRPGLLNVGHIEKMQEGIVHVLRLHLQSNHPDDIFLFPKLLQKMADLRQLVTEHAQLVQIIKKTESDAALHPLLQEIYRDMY
Description: These are a collection of biochemical assays measuring binding constants and enzyme inhibition values. Chemicals were initially screened at a single concentration in duplicate wells at a concentration of 10 [drawing 63] M for cytochrome P-450 assays and 25 [drawing 64] M for all others. […] These assays were run by Caliper Life Sciences (Hanover, MD) under contract to EPA. Short assay descriptions are available at: http://www.caliperls.com/products/contract-research/in-vitro/.
Cell-free HTS Assays: A collection of biochemical assays measuring binding constants and enzyme inhibition values. […] These assays were run by Caliper Life Sciences (Hanover, MD) under contract to EPA. Short assay descriptions are available at http://www.caliperls.com/products/contract-research/in-vitro/. Values for all endpoints were imported into GeneData Screener (Basel, Switzerland) and normalised to solvent controls from the same plate as the tested compounds and expressed as percent of neutral control. Concentration-response curves were fit in GeneData Screener (Basel, Switzerland) Condeseo module using the Hill equation and AC50 values were determined. […] Detailed description of the methods, data and analysis methods for this dataset are described in a separate publication.

[4] = HepG2, scale not given, looks like -log10 of molar active concentration, 0 = no activity

CC(C)N1C(=O)c2ccccc2NS1(=O)=O [r37]
ATG_Ahr_CIS [1, 4]: 0
ATG_RXRb_TRANS [2]: 0
NVS_NR_hPPARa [3]: 0

CCCCOCN(C(=O)CCl)c1c(CC)cccc1CC [r46]
ATG_Ahr_CIS [1, 4]: 0
ATG_RXRb_TRANS [2]: 0
NVS_NR_hPPARa [3]: 0

COC(=O)c1ccccc1CS(=O)(=O)NC(=O)Nc1nc(OC)cc(OC)n1 [r33]
ATG_Ahr_CIS [1, 4]: 0
ATG_RXRb_TRANS [2]: 0
NVS_NR_hPPARa [3]: 0

CNC(=O)Oc1cccc2ccccc12 [r52]
ATG_Ahr_CIS [1, 4]: 4.456
ATG_RXRb_TRANS [2]: 0
NVS_NR_hPPARa [3]: 0

Nc1cnn(-c2ccccc2)c(=O)c1Cl [r56]
ATG_Ahr_CIS [1, 4]: 4.444
ATG_RXRb_TRANS [2]: 0
NVS_NR_hPPARa [3]: 0

CC(C)(c1ccc(O)cc1)c1ccc(O)cc1 [r40]
ATG_Ahr_CIS [1, 4]: 4.495
ATG_RXRb_TRANS [2]: 0
NVS_NR_hPPARa [3]: 0

CCc1ccc(C(=O)NN(C(=O)c2cc(C)cc(C)c2)C(C)(C)C)cc1 [r290]
ATG_Ahr_CIS ([1]; HepG2 reporter): 4.337

CCCC1COC(Cn2cncn2)(c2ccc(Cl)cc2Cl)O1 (stereo not shown) [r262]
ATG_Ahr_CIS ([1]; HepG2): 4.367

Cc1c(COC(=O)C2C(/C=C(\Cl)C(F)(F)F)C2(C)C)cccc1-c1ccccc1 (stereo not shown) [r39]
ATG_Ahr_CIS [1, 4]: 0
ATG_RXRb_TRANS [2]: 0
NVS_NR_hPPARa [3]: 0

CCCN(CCC)c1c([N+](=O)[O-])cc(C(F)(F)F)c(N)c1[N+](=O)[O-] [r252]
ATG_Ahr_CIS ([1]; HepG2): 4.444

CCC(C)n1c(=O)[nH]c(C)c(Br)c1=O (stereo not shown) [r43]
ATG_Ahr_CIS [1, 4]: 0
ATG_RXRb_TRANS [2]: 0
NVS_NR_hPPARa [3]: 0

COc1cc(Cl)c(OC)cc1Cl [r57]
ATG_Ahr_CIS [1, 4]: 0
ATG_RXRb_TRANS [2]: 0
NVS_NR_hPPARa [3]: 0

COc1nc(C)nc(NC(=O)NS(=O)(=O)c2ccccc2Cl)n1 [r62]
ATG_Ahr_CIS [1, 4]: 0
ATG_RXRb_TRANS [2]: 0
NVS_NR_hPPARa [3]: 0

COc1cccc(C(=O)NN(C(=O)c2cc(C)cc(C)c2)C(C)(C)C)c1C [row 202]
ATG_Ahr_CIS ([1]; HepG2): 4.409

CCOC(=O)C(Cl)Cc1cc(-n2nc(C)n(C(F)F)c2=O)c(F)cc1Cl (stereo not shown) [r54]
ATG_Ahr_CIS [1, 4]: 0
ATG_RXRb_TRANS [2]: 0
NVS_NR_hPPARa [3]: 0

COc1ccc(-c2ccccc2)cc1NNC(=O)OC(C)C [r38]
ATG_RXRb_TRANS [2]: 0
NVS_NR_hPPARa [3]: 0

N#Cc1cc(Br)c(O)c(Br)c1 [r44]
ATG_Ahr_CIS [1, 4]: 4.319
ATG_RXRb_TRANS [2]: 0
NVS_NR_hPPARa [3]: 0

Cc1ccccc1CO[C@@H]1C[C@@]2(C(C)C)CC[C@]1(C)O2 [r64]
ATG_Ahr_CIS [1, 4]: 0
ATG_RXRb_TRANS [2]: 0
NVS_NR_hPPARa [3]: 0

COc1nc(C)nc(NC(=O)NS(=O)(=O)c2ccccc2Cl)n1 [r63]
ATG_Ahr_CIS [1, 4]: 0
ATG_RXRb_TRANS [2]: 0
NVS_NR_hPPARa [3]: 0

CC1=C(C(=O)Nc2ccccc2)SCCO1 [r53]
ATG_Ahr_CIS [1, 4]: 0
ATG_RXRb_TRANS [2]: 0
NVS_NR_hPPARa [3]: 0

CCC(C)Nc1c([N+](=O)[O-])cc(C(C)(C)C)cc1[N+](=O)[O-] (stereo not shown) [r48]
ATG_Ahr_CIS [1, 4]: 0
ATG_RXRb_TRANS [2]: 0
NVS_NR_hPPARa [3]: 0

CC(C)OC(=O)Nc1cccc(Cl)c1 [r59]
ATG_Ahr_CIS [1, 4]: 0
ATG_RXRb_TRANS [2]: 0
NVS_NR_hPPARa [3]: 0

N#Cc1c(Cl)c(Cl)c(Cl)c(C#N)c1Cl [r58]
ATG_Ahr_CIS [1, 4]: 0
ATG_RXRb_TRANS [2]: 0
NVS_NR_hPPARa [3]: 0

C=CCOC(=O)C(C)(C)OC(=O)c1cc(-n2c(=O)cc(C(F)(F)F)n(C)c2=O)ccc1Cl [r47]
ATG_Ahr_CIS [1, 4]: 0
ATG_RXRb_TRANS [2]: 0
NVS_NR_hPPARa [3]: 0

CCSC(=O)N(CC(C)C)CC(C)C [r49]
ATG_Ahr_CIS [1, 4]: 0
ATG_RXRb_TRANS [2]: 0
NVS_NR_hPPARa [3]: 0

CC(C)N1C(=O)N(c2ccccc2)CS/C1=N\C(C)(C)C [r45]
ATG_Ahr_CIS [1, 4]: 0
ATG_RXRb_TRANS [2]: 0
NVS_NR_hPPARa [3]: 0

O=C1C2CC=CCC2C(=O)N1SC(Cl)(Cl)Cl (stereo not shown) [r51]
ATG_Ahr_CIS [1, 4]: 0
ATG_RXRb_TRANS [2]: 0
NVS_NR_hPPARa [3]: 0

O=C(Nc1ccccc1-c1ccc(Cl)cc1)c1cccnc1Cl [r42]
ATG_Ahr_CIS [1, 4]: 0
ATG_RXRb_TRANS [2]: 0
NVS_NR_hPPARa [3]: 0

OB(O)O [r41]
ATG_Ahr_CIS [1, 4]: 0
ATG_RXRb_TRANS [2]: 0
NVS_NR_hPPARa [3]: 0

CCN(CC)C(=O)C(C)Oc1cccc2ccccc12 (stereo not shown) [row 219]
ATG_Ahr_CIS ([1]; HepG2): 4.456

Source: PMC3038857, “Using Nuclear Receptor Activity to Stratify Hepatocarcinogens” (PLoS ONE, 2011)
